# Laboratory results reported in publication PMC6009866, “Inhibition behaviours of some phenolic acids on rat kidney aldose reductase enzyme: an in vitro study” (Journal of Enzyme Inhibition and Medicinal Chemistry, 2017).
# Entries after “also recorded” stand apart in the source; their conditions may differ.
# Experiments:
# [1] = molecular target: T1, rat kidney aldose reductase (Rattus norvegicus, UniProt P07943); test: In vitro inhibition of purified rat kidney aldose reductase (NADPH absorbance decrease at 340 nm); type: biochemical; conditions: for Inhibition type: from Lineweaver-Burk graph, substrate DL-glyceraldehyde; for IC50: purified rat kidney AR, 10 mM DL-glyceraldehyde, 0.5 mM NADPH, pH 6.2, from Activity%-[Inhibitor] graphs; for Inhibition effect (in words): rat kidney AR, compared to the other phenolic acids of the study
# T1 construct: Purified rat kidney aldose reductase enzyme; from tissue; host or cells: rat kidney
# Method: Aldose reductase activity was assayed by following the absorbance decrease of NADPH at 340 nm spectrophotometrically.
# The dialyzed enzyme solution was loaded onto the DE-52 Cellulose anion exchange column previously equilibrated with 10 mM Na-phosphate buffer (pH 7.4). […] Eluted fractions were collected, and the enzyme activity was checked at 340 nm. The fractions with the enzyme activity were pooled and mixed with glycerol. Then this enzyme solution was loaded onto the Sephadex G-100 column equilibrated with 10 mM Na-phosphate buffer (pH 7.4). Fractions were analyzed for both protein amount (280 nm) and enzyme activity (340 nm). […] The enzyme activity was checked at 340 nm in collected fractions, and the tubes with enzyme activity were combined. All purification procedures were performed at 4 °C. SDS polyacrylamide gel electrophoresis was done to the control of enzyme purity.
# In inhibition studies, aldose reductase activity was assayed by following the change in absorbance at 340 nm, spectrophotometrically. One millilitre of the reaction mix contained 0.2 M Na-phosphate buffer (pH = 6.2), 10 mM DL-glyceraldehyde, 0.5 mM NADPH and enzyme solution[45]. AR activity was measured in the presence of different concentrations of phenolic acids. A control sample without inhibitor was taken as 100%, and for each inhibitor, an Activity%-[Inhibitor] graphs were drawn. IC50 values were determined from Activity%-[Inhibitor] graphs. For determination of the Ki constant, three different phenolic acid concentrations were used, and DL-glyceraldehyde was also used as a substrate at five different concentrations. […] Analysis of data obtained was made by t-test and they are given as X ± SD.
# [2] = tested on: human placental aldose reductase; design: method as in PMID 2505942; conditions: cited from earlier work
# [3] = Lineweaver-Burk graph, three inhibitor concentrations, five DL-glyceraldehyde concentrations, X ± SD
# [4] = mixed-type inhibition, second constant, Lineweaver-Burk graph, X ± SD
SMILES,"Ki [1, 3]",Inhibition type [1],IC50 [1],Inhibition effect (in words) [1],"Ki [1, 4]","Ki' [1, 4]",Inhibition effect (in words) [2],Inhibition type [2]
"COc1cc(C=CC(=O)O)ccc1O [Ferullic acid, 4-Hydroxy-3-methoxycinnamic acid]",72.5 ± 29.9 µM,Noncompetitive,69 µM,–,–,–,–,–
"O=C(O)c1ccc(O)c(O)c1 [Protocatechuic acid, 3,4-dihydroxybenzoic acid]",46.3 ± 31.5 µM,Noncompetitive,48 µM,–,–,–,–,–
O=C(O)c1ccc(O)cc1 [4-Hydroxybenzoic acid],52.2 ± 20.8 µM,Noncompetitive,50 µM,–,–,–,–,–
O=C(O)c1cc(O)c(O)c(O)c1 [Gallic acid],219 ± 56.3 µM,Noncompetitive,176 µM,weak inhibition effect,–,–,–,–
"O=C(O)c1cc(O)cc(O)c1 [α-Resorcylic acid, 3,5-dihydroxybenzoic acid]",127 ± 22 µM,Noncompetitive,110 µM,–,–,–,–,–
"COc1cc(C(=O)O)ccc1O [Vanillic acid, 4-hydroxy-3-methoxybenzoic acid]",103 ± 56.3 µM,Noncompetitive,86 µM,–,–,–,–,–
O=C(/C=C/c1ccc(O)c(O)c1)O[C@@H]1C[C@](O)(C(=O)O)C[C@@H](O)[C@H]1O [Chlorogenic acid],1.56 ± 0.436 µM,mixed type,5.47 µM,strong inhibition effect,28.05 µM,28.05 ± 10.210 µM,–,–
O=C(OCC1OC(OC(=O)c2cc(O)c(O)c(OC(=O)c3cc(O)c(O)c(O)c3)c2)C(OC(=O)c2cc(O)c(O)c(OC(=O)c3cc(O)c(O)c(O)c3)c2)C(OC(=O)c2cc(O)c(O)c(OC(=O)c3cc(O)c(O)c(O)c3)c2)C1OC(=O)c1cc(O)c(O)c(OC(=O)c2cc(O)c(O)c(O)c2)c1)c1cc(O)c(O)c(OC(=O)c2cc(O)c(O)c(O)c2)c1 (stereo not shown) [Tannic acid],0.598 ± 0.148 µM,Noncompetitive,0.5 µM,strong inhibition effect; also recorded: potent inhibition effect,–,–,potent inhibitor,mixed type
"O=C(O)/C=C/c1ccc(O)cc1 [p-Coumaric acid, trans-4-Hydroxycinnamic acid]",53.1 ± 2 µM,Uncompetitive,57 µM,–,–,–,–,–
COc1cc(C(=O)O)cc(OC)c1O [Syringic acid],107 ± 21.6 µM,Noncompetitive,95 µM,–,–,–,–,–
"O=C(O)c1cccc(O)c1 [3-Hydroxybenzoic acid, 3-hydroxybenzoic acid]",176 ± 24.5 µM,Noncompetitive,150 µM,–,–,–,–,–
"COc1cc(C=CC(=O)O)cc(OC)c1O [Sinapic acid, 3,5-Dimethoxy-4-hydroxycinnamic acid]",43.4 µM,Noncompetitive,33 µM,–,–,–,–,–
